# Laboratory results published in patent US20160310389A1, “Low Viscosity Hair Care Composition” (The Procter & Gamble Company, priority 2015, published 2016).
# Columns and labels:
# Format in all cases: physicochemical
# [1] = Shear viscosity of base formulation with additives (TA Instruments AR-G2 rheometer); conditions: 5% single additive, 25 C, shear rate 1 s^-1
# Source text: Now referring to Table 3, the base formulations were made by mixing 1.5 or 3.0% of perfume R, 24% sodium undecyl sulfate (CAS#1072-24-8) active, 6% Lauramidopropyl Betaine (CAS#4292-10-8) active, and 60.4% deionized water which leaves 8% unfilled for oil addition and level studies (the balance being filled in by distilled water).
# The complete formulations were made by adding the respective percentage of the agents from Table 3 into the base formulation, and filling the rest with deionized water to make 100% finished sample. The formulations were vortexed and put into oven at 60° C. overnight to form a homogeneous solution. For all formulations, the surfactant, water and additives including viscosity reducing agents are expected to be in a single phase.
# The shear viscosity at 25 C for each formulations was measured at a shear rate of 1 s^−1 using a TA Instruments AR-G2 rheometer with a concentric cylinder attachment. Shear viscosities are reported in cP.
# [2] = SAXS correlation length of the micelles; conditions: for Change in correlation length compared to control: control 51 A
# Source text: Now referring to Table 4, SAXS (Small angle x-ray scattering) was used to characterize the structure of the surfactant aggregates. For these set of samples, the broad peak represents the correlation length (CL) of the micelles and was used to differentiate between the different formulations.
# SAXS data was collected with a Bruker NanoSTAR (Bruker AXS Inc., Madison, Wis., U.S.A.) using the micro-focus, Cu x-ray tube, operating at 45 kV, 0.650 mA. The sample to detector distance was 112.050 cm and the detector was Vantec2K 2-dimensional area detector. Samples were placed in 2 mm quartz capillaries, sealed with expoxy resin to prevent evaporation. The sealant is permitted to cure for 2 hours at RT (room temperature) prior to loading into the SAXS sample chamber for data acquisition under vacuum with a data collection time of 1200 s. The data acquisition angular range is 0.3° to 3.0° […], to observe the presence and location of any intensity bands in the x-ray scattering pattern.
# Each raw 2-D SAXS data is integrated azimuthally and plotted versus the scattering vector (q), which is expressed as a […] in units of angstroms (1/Å). • The values for q are calculated by the SAXS instrument according to the following equation: […]
# Where: 2θ is the scattering angle; and λ is the wavelength used. For each formulation analyzed, the location of each intensity peak on the plot of (Intensity) I vs q is identified and recorded.
# [3] = Kinematic viscosity of surfactant base formulation with added agent (calibrated Cannon viscometers); conditions: for Kinematic viscosity at 40 C., 2% oil: 2% agent in base formulation; for Kinematic viscosity at 40 C., 4% oil: 4% agent in base formulation; for Kinematic viscosity at 40 C., 6% oil: 6% agent in base formulation; for Kinematic viscosity at 40 C., 8% oil: 8% agent in base formulation; for Lowest viscosity achieved: kinematic viscosity at 40° C., lowest over 2%, 4%, 6%, 8% agent in base formulation (24% sodium undecyl sulfate, 6% lauramidopropyl betaine, 1.6% perfume)
# Source text: Referring to Tables 1 and 2, the base formulations were made by mixing 1.6% perfume, 24% sodium undecyl sulfate (CAS#1072-24-8) active, 6% lauramidopropyl betaine (CAS#4292-10-8) active and 60.4% deionized water which leaves 8% unfilled for the addition of a viscosity reducing agent (the balance being filled in by distilled water). For all compositions, the surfactant, water and additives including viscosity reducing agents were expected to be in a single phase.
# The agents from Tables 1 and 2 were added to the base formulation at a percentage of 2%, 4%, 6%, and 8% into the above surfactant solution. The subsequent formulations were vortexed and put into oven at 60° C. overnight to form homogeneous solution. The viscosities of the formulations were measured with calibrated viscometers (Size 200/350/450) from Cannon Instrument Company (2139 High Tech Road, State College, Pa., USA, 16803).
# After the equilibration, the formulations were drawn to reach the starting mark with a rubber suction bulb and the flow time between the starting mark and end mark was recorded for calculation. Each formulation was measured three times to calculate average and standard deviation. Between samples, viscometer was cleaned with water and acetone to rinse off residual.
# Viscosity values were calculated based on the equation:
# Viscosity (mm^2/s (cSt))=Time (s)*Constant (mm^2/s^2·(cSt/s))
# The time in the above equation is the flow time recorded in the experiment and the constant numbers for each calibrated viscometer were obtained from the manuals.
# [4] = NMR self-diffusion coefficients and specific diffusivity ratio; conditions: for Specific diffusivity ratio measured at 4%: diffusion coefficient of the viscosity reducing agent/diffusion coefficient of the surfactant, 4% additive; for Diffusion Coefficient (m^2/s) surfactant at 4% additive: surfactant self-diffusion
# Experimental: Now referring to Table 5, the specified viscosity reducing agents were added to the formula at a level of 4% in absence of other viscosity reducing agents. Diffusion coefficients were determined using a vendor-supplied pulse sequence (“ledbpgq2s”, stimulated echo with bipolar gradients and convection compensation) using a Bruker Avance 700 MHz NMR spectrometer equipped with a Diff-30 high gradient diffusion probe. Gradient pulse durations ranged between 1700-2700 us, with diffusion periods ranging from 50-100 ms. 32 linearly-spaced gradient values were used ranging from 2%-95% of 40 A current, with resulting gradient strengths given by 30 Gauss/cm/A. Data were processed using software written in-house. It is often necessary to fit more than one diffusion coefficient to individual signals. Average diffusion coefficients are reported in these cases. Averages were calculated by averaging the reciprocals of the diffusion coefficients and then taking the reciprocal of that average.
# The specific diffusivity ratio is calculated as the ratio of the diffusion coefficient of the viscosity reducing agent/diffusion coefficient of the surfactant.
# Two mechanisms of viscosity reduction are hypothesized based on self-diffusion coefficients. This leads to a simple diagnostic measurement to classify perfumes by their mechanism of viscosity reduction. That diagnostic is the ratio of the perfume self-diffusion coefficient to the surfactant self-diffusion coefficient (specific diffusivity ratio). In mechanism 1, the surfactant diffusion coefficient is not reduced, and may be increased, while the perfume diffusion coefficient is faster still. In mechanism 2, the surfactant and perfume diffusion coefficient are reduced to relatively small, nearly equal values. For mechanism 1, the viscosity reducing agent diffuses faster than the surfactant (specific diffusivity ratio>1), whereas for mechanism 2, the viscosity reducing agent diffuses slower than the surfactant (specific diffusivity ratio<1).
Shear viscosity [cP] for mixture ([1]; 3.0% Royal Hue),Correlation length peak [A] ([2]; 2% oil),Change in correlation length compared to control ([2]; 2% oil),Correlation length peak [A] ([2]; 4% oil),Change in correlation length compared to control ([2]; 4% oil),"Kinematic viscosity at 40 C., 2% oil [3]","Kinematic viscosity at 40 C., 4% oil [3]","Kinematic viscosity at 40 C., 6% oil [3]","Kinematic viscosity at 40 C., 8% oil [3]",Lowest viscosity achieved [3],Shear viscosity [cP] for mixture ([1]; 1.5% Royal Hue),Specific diffusivity ratio measured at 4% [4],Diffusion Coefficient (m^2/s) surfactant at 4% additive [4],SMILES
119 cP,,,,,,,,,,,,,CC(=O)c1ccccc1 [Acetophenone]
110 cP,50 A,−2.0%,49 A,−3.9%,151.9 cSt,107.4 cSt,54.0 cSt,33.0 cSt,33 cSt,160 cP,5.1364,9.5404E−12 m^2/s,CC(=O)CCc1ccc(O)cc1 [Raspberry Ketone]
376 cP,,,,,527.3 cSt,292.9 cSt,203.1 cSt,,203 cSt,,1.5710,1.2262E−11 m^2/s,CC12CCC(CC1)C(C)(C)O2 [Eucalyptol]
207 cP,,,,,,,,,,,,,CC1=CCC2CC1C2(C)C (stereo not drawn) [alpha-Pinene]
161 cP,,,,,310.8 cSt,145.4 cSt,65.9 cSt,34.1 cSt,34 cSt,,,,CC(CC=O)CCCC(C)(C)O (centres unmarked) [Hydroxycitronellal]
,56 A,9.8%,61 A,19.6%,223.4 cSt,73.0 cSt,37.7 cSt,39.9 cSt,38 cSt,,0.7224,2.5217E−12 m^2/s,C=CC(C)(CCC=C(C)C)OC(=O)C(C)C (centres unmarked) [Linalyl Iso Butyrate]
160 cP,57 A,11.8%,62 A,21.6%,366.5 cSt,166.8 cSt,97.5 cSt,86.4 cSt,86 cSt,40 cP,0.7428,2.4338E−12 m^2/s,C=C(C)[C@H]1CC=C(C)CC1 [Limonene]

SMILES,Shear viscosity [cP] for mixture ([1]; 3.0% Royal Hue),Correlation length peak [A] ([2]; 2% oil),Change in correlation length compared to control ([2]; 2% oil),Correlation length peak [A] ([2]; 4% oil),Change in correlation length compared to control ([2]; 4% oil),"Kinematic viscosity at 40 C., 2% oil [3]","Kinematic viscosity at 40 C., 4% oil [3]","Kinematic viscosity at 40 C., 6% oil [3]","Kinematic viscosity at 40 C., 8% oil [3]",Lowest viscosity achieved [3],Shear viscosity [cP] for mixture ([1]; 1.5% Royal Hue),Specific diffusivity ratio measured at 4% [4],Diffusion Coefficient (m^2/s) surfactant at 4% additive [4]
CCOC(=O)C1OC1(C)c1ccccc1 (centres unmarked) [Ethyl Methyl Phenyl Glycidate],163 cP,,,,,,,,,,,,
